# Like-named read-outs stand apart in the source and are kept apart here.
# What was measured:
# Type in all cases: cell-based
# [1] = test system: Candida albicans; experiment: Growth inhibition (minimum inhibitory concentration, gross turbidity); settings: read-out: Minimum Inhibitory Concentration C. albicans
# Experimental: (§1) The ability of the phosphocholine derivatives of Examples 1-2 to inhibit growth of Candida albicans, Staphylococcus aureus, Lactobacillus acidophilus, and Gardnerella vaginale was tested. Each phosphocholine derivative (at concentrations ranging from 0 to 500 micrograms per milliliter) was dissolved into a broth media and 6 wt. % ethanol. Thereafter, 0.1 milliliter of each solution was inoculated in 1.0 milliliter of a growth media containing the microorganism of interest. The growth media was TSB media for Candida albicans and Staphylococcus aureus, MRS broth for Lactobacillus acidophilus, and NYC-3 broth enriched proteose peptone for Gardnerella vaginale. The concentration of the microorganism in the growth media was 10^4 colony forming units (“CFU”) per milliliter.
# (§2) Thereafter, the gross turbidity of the media was monitored at 24, 48, and 72 hours time intervals. Gross turbidity is an indicative of growth inhibition and is determined using visual determination or a spectrophotometer. The concentration of the phosphocholine derivative at which no turbidity is detected is designated as the “minimum inhibitory concentration.” Phosphocholine derivatives having lower minimum inhibitory concentrations are generally considered to have better antimicrobial efficacy.
# [2] = test system: Staphylococcus aureus; experiment: as above; settings: read-out: Minimum Inhibitory Concentration S. aureus
# Experimental: as §1, §2
# [3] = test system: Lactobacillus acidophilus; experiment: as above; settings: read-out: Minimum Inhibitory Concentration L. acidophilus
# Experimental: as §1, §2
# [4] = test system: Gardnerella vaginale; experiment: as above; settings: read-out: Minimum Inhibitory Concentration G. vaginale
# Experimental: as §1, §2
# [5] = test system: Candida albicans (C. albicans); experiment: Time-dependent inhibition (organism count)
# Excerpt: (§3) Hexadecyl phosphocholine (“BRB-1”) was studied for inhibition of Candida albicans (C. albicans), Staphylococcus aureus (S. aureus), and lactobacilli. The results are shown below in Tables 3-4. Tetradecyl phosphocholine (“BRB-3”) was also studied for inhibition of C. albicans aureus, and lactobaccili.
# [6] = test system: Staphylococcus aureus (S. aureus); experiment: Time-dependent inhibition (organism count)
# Excerpt: as §3
# [7] = test system: L. acidophilus (lactobacilli); experiment: Time-dependent inhibition (organism count); settings: for Organism Count / Percent Reduction: L. acidophilus
# Excerpt: as §3
# [8] = TSB media, 10^4 CFU/ml, turbidity at 24, 48, 72 hours
# [9] = MRS broth, 10^4 CFU/ml, turbidity at 24, 48, 72 hours
# [10] = NYC-3 broth, 10^4 CFU/ml, turbidity at 24, 48, 72 hours
molecule,measurement,setting,value
CCCCCCCCCCCCCCCCOP([O-])(=S)OCC[N+](C)(C)C (stereo not shown),MIC,[1]; 72 h,31.2 µg/mL
same,MIC,[2]; 72 h,31.2 µg/mL
same,MIC,[3]; 72 h,31.2 µg/mL
same,MIC,[4]; 72 h,31.2 µg/mL
tetradecyl phosphocholine [BRB-3],% Reduction,"[5]; 10 μg/ml, 0 Hour",2.7%
same,Organism Count,"[5]; 10 μg/ml, 0 Hour",7.1 × 10^4 CFU/ml
same,% Reduction,"[5]; 10 μg/ml, 1 Hour",20.5%
same,Organism Count,"[5]; 10 μg/ml, 1 Hour",5.8 × 10^4 CFU/ml
same,% Reduction,"[5]; 10 μg/ml, 2 Hours",30.1%
same,Organism Count,"[5]; 10 μg/ml, 2 Hours",5.1 × 10^4 CFU/ml
same,% Reduction,"[5]; 10 μg/ml, 4 Hours",52.0%
same,Organism Count,"[5]; 10 μg/ml, 4 Hours",3.5 × 10^4 CFU/ml
same,% Reduction,"[5]; 100 μg/ml, 0 Hour",26.0%
same,Organism Count,"[5]; 100 μg/ml, 0 Hour",7.4 × 10^4 CFU/ml
same,% Reduction,"[5]; 100 μg/ml, 1 Hour",43.0%
same,Organism Count,"[5]; 100 μg/ml, 1 Hour",5.7 × 10^4 CFU/ml
same,% Reduction,"[5]; 100 μg/ml, 2 Hours",51.0%
same,Organism Count,"[5]; 100 μg/ml, 2 Hours",4.9 × 10^4 CFU/ml
same,% Reduction,"[5]; 100 μg/ml, 4 Hours",46.0%
same,Organism Count,"[5]; 100 μg/ml, 4 Hours",5.4 × 10^4 CFU/ml
same,Organism Count,"[6]; 10 μg/ml, 0 Hour",1.4 × 10^5 CFU/ml
same,% Reduction,"[6]; 10 μg/ml, 1 Hour",18.3%
same,Organism Count,"[6]; 10 μg/ml, 1 Hour",9.8 × 10^4 CFU/ml
same,% Reduction,"[6]; 10 μg/ml, 2 Hours",25.8%
same,Organism Count,"[6]; 10 μg/ml, 2 Hours",8.9 × 10^4 CFU/ml
same,% Reduction,"[6]; 10 μg/ml, 4 Hours",38.3%
same,Organism Count,"[6]; 10 μg/ml, 4 Hours",7.4 × 10^4 CFU/ml
same,% Reduction,"[6]; 100 μg/ml, 0 Hour",7.1%
same,Organism Count,"[6]; 100 μg/ml, 0 Hour",1.3 × 10^5 CFU/ml
same,% Reduction,"[6]; 100 μg/ml, 1 Hour",97.9%
same,Organism Count,"[6]; 100 μg/ml, 1 Hour",2.9 × 10^3 CFU/ml
same,% Reduction,"[6]; 100 μg/ml, 2 Hours",99.9%
same,Organism Count,"[6]; 100 μg/ml, 2 Hours",1.1 × 10^2 CFU/ml
same,% Reduction,"[6]; 100 μg/ml, 4 Hours",99.99%
same,Organism Count,"[7]; 10 μg/ml, 0 Hour",3.1 × 10^5 CFU/ml
same,Percent Reduction,"[7]; 10 μg/ml, 0 Hour",16.2%
same,Organism Count,"[7]; 10 μg/ml, 1 Hour",2.9 × 10^5 CFU/ml
same,Percent Reduction,"[7]; 10 μg/ml, 1 Hour",21.6%
same,Organism Count,"[7]; 10 μg/ml, 2 Hours",2.4 × 10^5 CFU/ml
same,Percent Reduction,"[7]; 10 μg/ml, 2 Hours",35.1%
same,Organism Count,"[7]; 10 μg/ml, 4 Hours",2.3 × 10^5 CFU/ml
same,Percent Reduction,"[7]; 10 μg/ml, 4 Hours",37.8%
same,Organism Count,"[7]; 100 μg/ml, 0 Hour",4.5 × 10^5 CFU/ml
same,Percent Reduction,"[7]; 100 μg/ml, 0 Hour",88.5%
same,Percent Reduction,"[7]; 100 μg/ml, 1 Hour",99.99%
same,Inhibition of lactobacilli (in words),"[7]; Tables 4 and 5, ascribed to organism instability in the media and the protocol",some inhibtion
CCCCCCCCCCCCCCOP(=O)([O-])OCC[N+](C)(C)C,MIC,[1]; [8],62.5 µg/mL
same,MIC,[2]; [8],250 µg/mL
same,MIC,[3]; [9],250 µg/mL
same,MIC,[4]; [10],250 µg/mL
"CCCCCCCCCCCCCCCCOP(=O)([O-])OCC[N+](C)(C)C [BRB-1, hexadecyl phosphocholine]",Organism Count,"[5]; 10 μg/ml, 0 Hour",8.4 × 10^5 CFU/ml
same,% Reduction,"[5]; 10 μg/ml, 1 Hour",68.0%
same,Organism Count,"[5]; 10 μg/ml, 1 Hour",2.3 × 10^5 CFU/ml
same,% Reduction,"[5]; 10 μg/ml, 2 Hours",99.7%
same,Organism Count,"[5]; 10 μg/ml, 2 Hours",2.1 × 10^3 CFU/ml
same,% Reduction,"[5]; 10 μg/ml, 4 Hours",99.99%
same,Organism Count,"[5]; 10 μg/ml, 4 Hours",50 CFU/ml
same,% Reduction,"[5]; 100 μg/ml, 0 Hour",27.5%
same,Organism Count,"[5]; 100 μg/ml, 0 Hour",2.9 × 10^5 CFU/ml
same,% Reduction,"[5]; 100 μg/ml, 1 Hour",70.0%
same,Organism Count,"[5]; 100 μg/ml, 1 Hour",1.2 × 10^5 CFU/ml
same,% Reduction,"[5]; 100 μg/ml, 2 Hours",99.8%
same,Organism Count,"[5]; 100 μg/ml, 2 Hours",8.0 × 10^2 CFU/ml
same,% Reduction,"[5]; 100 μg/ml, 4 Hours",99.9%
same,Organism Count,"[5]; 100 μg/ml, 4 Hours",3.8 × 10^2 CFU/ml
same,% Reduction,"[6]; 10 μg/ml, 0 Hour",18.5%
same,Organism Count,"[6]; 10 μg/ml, 0 Hour",5.3 × 10^4 CFU/ml
same,% Reduction,"[6]; 10 μg/ml, 1 Hour",98.9%
same,Organism Count,"[6]; 10 μg/ml, 1 Hour",7.3 × 10^2 CFU/ml
same,% Reduction,"[6]; 10 μg/ml, 2 Hours",99.91%
same,Organism Count,"[6]; 10 μg/ml, 2 Hours",60 CFU/ml
same,% Reduction,"[6]; 10 μg/ml, 4 Hours",99.98%
same,% Reduction,"[6]; 100 μg/ml, 0 Hour",39.2%
same,Organism Count,"[6]; 100 μg/ml, 0 Hour",4.8 × 10^4 CFU/ml
same,% Reduction,"[6]; 100 μg/ml, 1 Hour",99.8%
same,Organism Count,"[6]; 100 μg/ml, 1 Hour",1.4 × 10^2 CFU/ml
same,% Reduction,"[6]; 100 μg/ml, 2 Hours",99.97%
same,Organism Count,"[6]; 100 μg/ml, 2 Hours",20 CFU/ml
same,% Reduction,"[6]; 100 μg/ml, 4 Hours",99.99%
same,Organism Count,"[7]; 1 μg/ml, 0 Hour",7.0 × 10^4 CFU/ml
same,Percent Reduction,"[7]; 1 μg/ml, 0 Hour",6.7%
same,Organism Count,"[7]; 1 μg/ml, 1 Hour",8.6 × 10^4 CFU/ml
same,Organism Count,"[7]; 1 μg/ml, 2 Hours",7.6 × 10^4 CFU/ml
same,Organism Count,"[7]; 1 μg/ml, 4 Hours",6.7 × 10^4 CFU/ml
same,Percent Reduction,"[7]; 1 μg/ml, 4 Hours",10.7%
same,Organism Count,"[7]; 10 μg/ml, 0 Hour",1.8 × 10^5 CFU/ml
same,Percent Reduction,"[7]; 10 μg/ml, 0 Hour",18.2%
same,Organism Count,"[7]; 10 μg/ml, 1 Hour",20 CFU/ml
same,Percent Reduction,"[7]; 10 μg/ml, 1 Hour",99.99%
same,Percent Reduction,"[7]; 10 μg/ml, 6 Hours",99.99%
same,Organism Count,"[7]; 100 μg/ml, 0 Hour",1.5 × 10^5 CFU/ml
same,Percent Reduction,"[7]; 100 μg/ml, 0 Hour",31.8%
same,Organism Count,"[7]; 100 μg/ml, 1 Hour",70 CFU/ml
same,Percent Reduction,"[7]; 100 μg/ml, 1 Hour",99.97%
same,Percent Reduction,"[7]; 100 μg/ml, 6 Hours",99.99%
same,MIC,[1]; [8],15.6 µg/mL
same,MIC,[2]; [8],125 µg/mL
same,MIC,[3]; [9],125 µg/mL
same,MIC,[4]; [10],31.2 µg/mL
CCCCCCCCCCCCCCCCOCC(O)COP(=O)([O-])OCC[N+](C)(C)C (racemic),MIC,[1]; [8],125 µg/mL
same,MIC,[2]; [8],250 µg/mL
same,MIC,[3]; [9],250 µg/mL
same,MIC,[4]; [10],250 µg/mL
